Values joined by “and” are separate entries in the source; they are usually repeats but may differ in a detail not shown here. Equal values may be shown once. Toxic doses and inconclusive results are not listed.
Test system: P388 leukemia ip, CD2F1 mice, survival T/C
Experiment: NCI In Vivo Anticancer Drug Screen. Data for tumor model P388 Leukemia (intraperitoneal) in CD2F1 (CDF1) mice
Conditions: endpoint: median survival time, higher = longer survival
Outline: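 Mice carrying the transplanted tumor received test compound or vehicle. Survival was recorded in each group, and the value is the treated-group measurement divided by that of the vehicle-treated control group.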

[1] = dose: 100.0 mg/kg/injection, schedule: Q01DX001 (ip), vehicle: saline with Tween-80
[2] = dose: 400.0 mg/kg/injection, schedule: Q01DX001 (ip), vehicle: saline with Tween-80
[3] = dose: 25.0 mg/kg/injection, schedule: Q01DX009 (ip), vehicle: Klucel (hydroxypropylcellulose) (HPC)
[4] = dose: 50.0 mg/kg/injection, schedule: Q01DX009 (ip), vehicle: Klucel (hydroxypropylcellulose) (HPC)
[5] = dose: 100.0 mg/kg/injection, schedule: Q01DX009 (ip), vehicle: Klucel (hydroxypropylcellulose) (HPC)
[6] = dose: 200.0 mg/kg/injection, schedule: Q01DX009 (ip), vehicle: Klucel (hydroxypropylcellulose) (HPC)
[7] = dose: 12.5 mg/kg/injection, schedule: Q01DX009 (ip), vehicle: saline
[8] = dose: 25.0 mg/kg/injection, schedule: Q01DX009 (ip), vehicle: saline
[9] = dose: 50.0 mg/kg/injection, schedule: Q01DX009 (ip), vehicle: saline
[10] = dose: 100.0 mg/kg/injection, schedule: Q01DX009 (ip), vehicle: saline
[11] = dose: 50.0 mg/kg/injection, schedule: Q01DX005 (ip), vehicle: Klucel (hydroxypropylcellulose) (HPC)
[12] = dose: 100.0 mg/kg/injection, schedule: Q01DX005 (ip), vehicle: Klucel (hydroxypropylcellulose) (HPC)
[13] = dose: 200.0 mg/kg/injection, schedule: Q01DX005 (ip), vehicle: Klucel (hydroxypropylcellulose) (HPC)
[14] = dose: 6.25 mg/kg/injection, schedule: Q01DX009 (ip), vehicle: saline with Tween-80
[15] = dose: 12.5 mg/kg/injection, schedule: Q01DX009 (ip), vehicle: saline with Tween-80
[16] = dose: 25.0 mg/kg/injection, schedule: Q01DX009 (ip), vehicle: saline with Tween-80
[17] = dose: 50.0 mg/kg/injection, schedule: Q01DX009 (ip), vehicle: saline with Tween-80
[18] = dose: 100.0 mg/kg/injection, schedule: Q01DX009 (ip), vehicle: saline with Tween-80
[19] = dose: 12.5 mg/kg/injection, schedule: Q01DX009 (ip), vehicle: other
[20] = dose: 25.0 mg/kg/injection, schedule: Q01DX009 (ip), vehicle: other
[21] = dose: 50.0 mg/kg/injection, schedule: Q01DX009 (ip), vehicle: other
[22] = dose: 100.0 mg/kg/injection, schedule: Q01DX009 (ip), vehicle: other
[23] = dose: 200.0 mg/kg/injection, schedule: Q01DX009 (ip), vehicle: other
[24] = dose: 50.0 mg/kg/injection, schedule: Q01DX005 (ip), vehicle: saline with Tween-80
[25] = dose: 100.0 mg/kg/injection, schedule: Q01DX005 (ip), vehicle: saline with Tween-80
[26] = dose: 200.0 mg/kg/injection, schedule: Q01DX005 (ip), vehicle: saline with Tween-80
[27] = dose: 100.0 mg/kg/injection, schedule: Q04DX003 (ip), vehicle: saline with Tween-80
[28] = dose: 200.0 mg/kg/injection, schedule: Q04DX003 (ip), vehicle: saline with Tween-80
[29] = dose: 200.0 mg/kg/injection, schedule: Q01DX009 (ip), vehicle: saline with Tween-80

CCCCOP(=O)(O)OCCCC.[Th]
T/C (dose: 25.0 mg/kg/injection, schedule: Q01DX001 (ip), vehicle: saline with Tween-80): 113 % of control
T/C (dose: 50.0 mg/kg/injection, schedule: Q01DX001 (ip), vehicle: saline with Tween-80): 100 % of control
T/C [1]: 102 % of control
T/C [2]: 97 % of control

CC(=O)N(C)N(Cc1ccc(C#N)cc1)C(C)=O
T/C [3]: 101 % of control
T/C [4]: 98 % of control
T/C [5]: 99 % of control
T/C [6]: 108 % of control
T/C (dose: 400.0 mg/kg/injection, schedule: Q01DX009 (ip), vehicle: Klucel (hydroxypropylcellulose) (HPC)): 98 % of control

Cc1cc2nc3ccc(O)cc3[n+](C)c2cc1N
T/C [7]: 98 % of control and 103 % of control
T/C [8]: 100 % of control and 106 % of control
T/C [9]: 96 % of control and 97 % of control
T/C [10]: 99 % of control and 96 % of control

O=C(N/N=C/c1ccccn1)c1ccccc1[O-].O=C(N/N=C/c1ccccn1)c1ccccc1[O-].[Mn+2]
T/C [11]: 103 % of control
T/C [12]: 101 % of control
T/C [13]: 107 % of control

CN(C)c1ccc(C(=C2C=CC(=[N+](C)C)C=C2)c2ccc(N(C)C)cc2)cc1
T/C (dose: 0.19 mg/kg/injection, schedule: Q01DX009 (ip), vehicle: saline): 108 % of control
T/C (dose: 0.39 mg/kg/injection, schedule: Q01DX009 (ip), vehicle: saline): 123 % of control

Cc1c2oc3c(C)ccc(C(=O)OCCN4CCOCC4)c3nc-2c(C(=O)OCCN2CCOCC2)c(N)c1=O
T/C (dose: 3.13 mg/kg/injection, schedule: Q01DX009 (ip), vehicle: saline with Tween-80): 112 % of control
T/C [14]: 110 % of control
T/C [15]: 119 % of control
T/C [16]: 111 % of control

O=[N+]([O-])c1c(N2CCN(CCO)CC2)ccc2nonc12
T/C (dose: 50.0 mg/kg/injection, schedule: Q01DX009 (ip), vehicle: suspension in saline): 100 % of control
T/C (dose: 100.0 mg/kg/injection, schedule: Q01DX009 (ip), vehicle: suspension in saline): 108 % of control

CCOC(=O)Cn1/c(=N/N=C/c2ccc([N+](=O)[O-])o2)sc2cc(OC)ccc21
T/C (dose: 3.75 mg/kg/injection, schedule: Q01DX005 (ip), vehicle: saline with Tween-80): 97 % of control
T/C (dose: 7.5 mg/kg/injection, schedule: Q01DX005 (ip), vehicle: saline with Tween-80): 90 % of control
T/C (dose: 60.0 mg/kg/injection, schedule: Q01DX005 (ip), vehicle: Klucel (hydroxypropylcellulose) (HPC)): 87 % of control
T/C (dose: 240.0 mg/kg/injection, schedule: Q01DX005 (ip), vehicle: Klucel (hydroxypropylcellulose) (HPC)): 86 % of control

COc1ccc(C2c3cc(OC)c(OC)cc3CC3C(=O)OCC32)cc1OC (configuration not stated)
T/C [11]: 94 % of control and 107 % of control
T/C [12]: 100 % of control and 97 % of control
T/C [13]: 112 % of control and 103 % of control

COC(=O)c1ccc(SCCC(=O)CCl)cc1
T/C [17]: 115 % of control
T/C [18]: 116 % of control

O=C(NC(=S)c1cccc2ccccc12)Nc1ccc(Cl)c(Cl)c1
T/C [15]: 89 % of control
T/C [16]: 87 % of control
T/C [17]: 103 % of control

Cn1c(=O)oc2cc(N)c(Br)cc21
T/C [11]: 90 % of control
T/C [12]: 92 % of control
T/C [13]: 94 % of control

Oc1c[nH]c(=S)s1
T/C [19]: 112 % of control
T/C [20]: 106 % of control
T/C [21]: 111 % of control
T/C [22]: 102 % of control
T/C [23]: 117 % of control

COC(=O)C1=C(C(=O)OC)[C@@H]2CC[C@H]1[C@H]1[C@@H]2N=NN1c1ccccc1
T/C [24]: 106 % of control
T/C [25]: 86 % of control
T/C [26]: 99 % of control

CCCCCCCCCCCCCC(=O)Oc1ccc[nH]c1=O
T/C [24]: 91 % of control
T/C [25]: 90 % of control
T/C [26]: 90 % of control
T/C (dose: 400.0 mg/kg/injection, schedule: Q01DX005 (ip), vehicle: saline with Tween-80): 98 % of control

CC(=O)C1(C(C)=O)C2=C(C(=O)C(Cl)=C(Cl)C2=O)N2C=CC=CC21 (configuration not stated)
T/C (dose: 100.0 mg/kg/injection, schedule: Q04DX002 (ip), vehicle: saline): 102 % of control
T/C (dose: 200.0 mg/kg/injection, schedule: Q04DX002 (ip), vehicle: saline): 88 % of control

Nc1cc(-c2ccc(Br)cc2)nn1-c1nc(-c2ccc(Br)cc2)cs1
T/C [3]: 87 % of control
T/C [4]: 86 % of control
T/C [5]: 87 % of control
T/C [6]: 89 % of control

COC(=S)NCCn1c([N+](=O)[O-])cnc1C
T/C [1]: 110 % of control
T/C (dose: 200.0 mg/kg/injection, schedule: Q01DX001 (ip), vehicle: saline with Tween-80): 100 % of control
T/C [2]: 108 % of control

CP(=O)(N/N=C\C(=O)O)c1ccccc1 (configuration not stated)
T/C [19]: 99 % of control
T/C [20]: 91 % of control
T/C [21]: 100 % of control
T/C [22]: 97 % of control
T/C [23]: 98 % of control
T/C (dose: 400.0 mg/kg/injection, schedule: Q01DX009 (ip), vehicle: other): 97 % of control

COP(=O)(O)OC.[V]
T/C (dose: 50.0 mg/kg/injection, schedule: Q04DX003 (ip), vehicle: saline with Tween-80): 96 % of control
T/C [27]: 103 % of control and 108 % of control
T/C [28]: 99 % of control

COC(C(N)=O)(c1ccccc1)C(F)(F)F (configuration not stated)
T/C [18]: 90 % of control
T/C [29]: 100 % of control
T/C (dose: 400.0 mg/kg/injection, schedule: Q01DX009 (ip), vehicle: saline with Tween-80): 90 % of control

CC1=CC(=O)[C@@H](O)[C@]2(C)[C@H]3[C@@H](O)[C@H](O)[C@@]4(C)OC[C@@]35[C@@H](C[C@@H]12)OC(=O)C[C@]54O
T/C (dose: 1.0 mg/kg/injection, schedule: Q01DX009 (ip), vehicle: saline): 115 % of control
T/C (dose: 8.0 mg/kg/injection, schedule: Q01DX009 (ip), vehicle: saline): 153 % of control

O=[N+]([O-])c1ccc([S][Sn]([c]2ccccc2)([c]2ccccc2)[c]2ccccc2)cc1
T/C (dose: 50.0 mg/kg/injection, schedule: Q04DX003 (ip), vehicle: saline): 101 % of control and 92 % of control
T/C (dose: 100.0 mg/kg/injection, schedule: Q04DX003 (ip), vehicle: saline): 98 % of control and 104 % of control and 109 % of control
T/C (dose: 200.0 mg/kg/injection, schedule: Q04DX003 (ip), vehicle: saline): 108 % of control and 109 % of control and 110 % of control
T/C (dose: 400.0 mg/kg/injection, schedule: Q04DX003 (ip), vehicle: saline): 101 % of control and 102 % of control and 120 % of control

O=C(CC(=O)C(F)(F)F)c1cccs1
T/C [14]: 100 % of control
T/C [15]: 100 % of control and 104 % of control
T/C [16]: 103 % of control and 110 % of control
T/C [17]: 100 % of control and 111 % of control and 114 % of control

Cc1ccccc1-c1nc2c(N)nc(N)nc2nc1N
T/C [27]: 109 % of control
T/C [29]: 172 % of control
T/C [28]: 109 % of control
T/C (dose: 264.0 mg/kg/injection, schedule: Q04DX003 (ip), vehicle: saline with Tween-80): 113 % of control
T/C (dose: 300.0 mg/kg/injection, schedule: Q01DX009 (ip), vehicle: saline with Tween-80): 109 % of control
T/C (dose: 400.0 mg/kg/injection, schedule: Q04DX003 (ip), vehicle: saline with Tween-80): 113 % of control

CCOC(=Nc1ccc([N+](=O)[O-])cc1)SC(c1ccccc1)(c1ccccc1)c1ccccc1
T/C [24]: 103 % of control
T/C [25]: 91 % of control
T/C [26]: 88 % of control

CC(C)=C(C#N)NC(C)(C)C
T/C [7]: 101 % of control
T/C [8]: 100 % of control
T/C [9]: 98 % of control and 94 % of control

CSCCC(O)C(NC(=O)CCl)C(=O)O (configuration not stated)
T/C [9]: 89 % of control and 96 % of control
T/C [10]: 98 % of control and 102 % of control
T/C (dose: 200.0 mg/kg/injection, schedule: Q01DX009 (ip), vehicle: saline): 93 % of control and 95 % of control

Reference: PubChem BioAssay AID330 (DTP/NCI, 2004)
